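Step 1: Grow cells in 96-well plates. Step 2: Expose to compound for 48 hours at 5 concentrations. Step 3: Interpolate endpoints linearly; if unreached, use highest concentration. GI50: concentration for 50% inhibition of growth.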 Calls of active or inactive are those of the source. Cut-off read from the data, not from the text of the source: active = GI50 up to about 1.1 µM and inactive = higher.
How the values were obtained:
Test in all cases: NCI anticancer screen, dose series, 48 h
CAKI-1 = test system: CAKI-1
DU-145 = test system: DU-145
HCC 2998 = test system: HCC 2998
HOP-62 = test system: HOP-62
Hs-578T = test system: Hs-578T
K562 = test system: K562
KM12 = test system: KM12
MDA-MB-435 = test system: MDA-MB-435
MOLT-4 = test system: MOLT-4
NCI-H23 = test system: NCI-H23
NCI-H460 = test system: NCI-H460
NCI-H522 = test system: NCI-H522
RPMI-8226 = test system: RPMI-8226
SF-268 = test system: SF-268
SK-MEL-28 = test system: SK-MEL-28
SK-MEL-5 = test system: SK-MEL-5
SNB-75 = test system: SNB-75
UACC-62 = test system: UACC-62
NCI-H226 = test system: NCI-H226
HL-60 = test system: HL-60

SMILES	GI50 (CAKI-1)	GI50 (DU-145)	GI50 (HCC 2998)	GI50 (HOP-62)	GI50 (Hs-578T)	GI50 (K562)	GI50 (KM12)	GI50 (MDA-MB-435)	GI50 (MOLT-4)	GI50 (NCI-H23)	GI50 (NCI-H460)	GI50 (NCI-H522)	GI50 (RPMI-8226)	GI50 (SF-268)	GI50 (SK-MEL-28)	GI50 (SK-MEL-5)	GI50 (SNB-75)	GI50 (UACC-62)	GI50 (NCI-H226)	GI50 (HL-60)
Oc1ccc2ccccc2c1CN(Cc1c(O)ccc2ccccc12)C1CCCCC1	16.6 µM (inactive)	20.3 µM (inactive)	14.6 µM (inactive)	29.7 µM (inactive)	26.4 µM (inactive)	19.5 µM (inactive)	28.2 µM (inactive)	19.2 µM (inactive)	16.6 µM (inactive)	17.1 µM (inactive)	20 µM (inactive)	13.4 µM (inactive)	25.1 µM (inactive)	14.1 µM (inactive)	22.8 µM (inactive)	14.9 µM (inactive)	21.8 µM (inactive)	16.8 µM (inactive)	–	–
O=C(/C=C/C=C/c1ccccc1)c1ccc2c(c1)CCCC2	74.3 µM (inactive)	25.5 µM (inactive)	23 µM (inactive)	91.6 µM (inactive)	4.84 µM (inactive)	30.9 µM (inactive)	28.8 µM (inactive)	18.9 µM (inactive)	25.9 µM (inactive)	35 µM (inactive)	–	13.4 µM (inactive)	24.4 µM (inactive)	16.2 µM (inactive)	> 100 µM (inactive)	37.2 µM (inactive)	–	> 100 µM (inactive)	41.1 µM (inactive)	–
COC(=O)C12CCC(C(=O)OC)(Cc3c(c4ccccc4n3S(=O)(=O)c3ccccc3)C1)C2=O (stereo unspecified)	> 62.4 µM (inactive)	> 100 µM (inactive)	> 76.9 µM (inactive)	> 100 µM (inactive)	> 46.6 µM (inactive)	62.1 µM (inactive)	> 100 µM (inactive)	> 100 µM (inactive)	–	> 100 µM (inactive)	> 67 µM (inactive)	20 µM (inactive)	> 100 µM (inactive)	> 61 µM (inactive)	> 100 µM (inactive)	9.29 µM (inactive)	> 60.7 µM (inactive)	> 40.5 µM (inactive)	–	–
O=C1c2c(Br)sc(Br)c2[C@@H](Cl)[C@H]1Cl	20.7 µM (inactive)	18.7 µM (inactive)	–	17.9 µM (inactive)	36.6 µM (inactive)	10 µM (inactive)	17.2 µM (inactive)	19.3 µM (inactive)	14.9 µM (inactive)	12.9 µM (inactive)	19.4 µM (inactive)	3.07 µM (inactive)	18.2 µM (inactive)	19.1 µM (inactive)	23.3 µM (inactive)	16.1 µM (inactive)	17.6 µM (inactive)	18.2 µM (inactive)	16.4 µM (inactive)	3.27 µM (inactive)
CC(O)C1OC(O)C2OC(C)(C)OC12 (stereo unspecified)	> 100 µM (inactive)	> 100 µM (inactive)	–	> 100 µM (inactive)	> 100 µM (inactive)	> 100 µM (inactive)	> 100 µM (inactive)	> 100 µM (inactive)	> 100 µM (inactive)	> 100 µM (inactive)	> 100 µM (inactive)	> 100 µM (inactive)	> 100 µM (inactive)	> 100 µM (inactive)	> 100 µM (inactive)	> 100 µM (inactive)	> 100 µM (inactive)	> 100 µM (inactive)	> 100 µM (inactive)	> 100 µM (inactive)
O=C(NCCCCCCCCNC(=O)Nc1cccc2ccccc12)Nc1cccc2ccccc12	40.9 µM (inactive)	> 100 µM (inactive)	30.1 µM (inactive)	12.8 µM (inactive)	14.2 µM (inactive)	14.5 µM (inactive)	> 100 µM (inactive)	17.3 µM (inactive)	41.6 µM (inactive)	30.4 µM (inactive)	3.5 µM (inactive)	16.1 µM (inactive)	> 100 µM (inactive)	14.1 µM (inactive)	57.7 µM (inactive)	42.3 µM (inactive)	35.5 µM (inactive)	32.9 µM (inactive)	–	33.4 µM (inactive)
CCOC(=O)CCC(NC(=O)c1ccc(Nc2nc3ccccc3n3cccc23)cc1)C(=O)OCC (stereo unspecified)	33.6 µM (inactive)	28.9 µM (inactive)	29.8 µM (inactive)	23.7 µM (inactive)	35.6 µM (inactive)	38.5 µM (inactive)	31.1 µM (inactive)	30.2 µM (inactive)	18.3 µM (inactive)	35.9 µM (inactive)	28.7 µM (inactive)	22.9 µM (inactive)	23.1 µM (inactive)	37.8 µM (inactive)	47.6 µM (inactive)	31 µM (inactive)	26.7 µM (inactive)	23.1 µM (inactive)	–	> 100 µM (inactive)
COc1ccccc1/C=N/Nc1nnc2c3ccccc3c3ncccc3c2n1	> 100 µM (inactive)	> 100 µM (inactive)	71.9 µM (inactive)	17.1 µM (inactive)	21 µM (inactive)	70.8 µM (inactive)	> 100 µM (inactive)	> 100 µM (inactive)	60.3 µM (inactive)	> 100 µM (inactive)	45.1 µM (inactive)	70.6 µM (inactive)	69.2 µM (inactive)	29.9 µM (inactive)	> 100 µM (inactive)	89.5 µM (inactive)	19.3 µM (inactive)	48.8 µM (inactive)	–	> 100 µM (inactive)
Cc1nc2ccc(/N=N/N(C)C)cc2[nH]1	> 100 µM (inactive)	> 100 µM (inactive)	> 100 µM (inactive)	> 100 µM (inactive)	> 100 µM (inactive)	–	> 100 µM (inactive)	> 100 µM (inactive)	> 100 µM (inactive)	–	> 100 µM (inactive)	> 100 µM (inactive)	> 100 µM (inactive)	> 100 µM (inactive)	> 100 µM (inactive)	> 100 µM (inactive)	> 100 µM (inactive)	> 100 µM (inactive)	> 100 µM (inactive)	–
CN(C)c1ccc(/C=C2\N=C(c3ccccc3)N(/N=C3\C(=O)Nc4ccccc43)C2=O)cc1	35.9 µM (inactive)	61.9 µM (inactive)	52.4 µM (inactive)	> 100 µM (inactive)	38.8 µM (inactive)	32 µM (inactive)	50.9 µM (inactive)	20.4 µM (inactive)	32 µM (inactive)	> 100 µM (inactive)	50.5 µM (inactive)	23.4 µM (inactive)	–	39.6 µM (inactive)	> 100 µM (inactive)	47.8 µM (inactive)	57.9 µM (inactive)	> 100 µM (inactive)	–	35.2 µM (inactive)
O=C1N[C@@H]2O[C@H](CNC(=O)c3cc(Br)c[nH]3)C[C@]2(O)N1.O=C1N[C@H]2O[C@H](CNC(=O)c3cc(Br)c[nH]3)C[C@@]2(O)N1	> 100 µM (inactive)	> 100 µM (inactive)	–	> 100 µM (inactive)	> 100 µM (inactive)	> 100 µM (inactive)	> 100 µM (inactive)	> 100 µM (inactive)	> 100 µM (inactive)	> 100 µM (inactive)	> 100 µM (inactive)	> 100 µM (inactive)	> 100 µM (inactive)	> 100 µM (inactive)	> 100 µM (inactive)	> 100 µM (inactive)	> 100 µM (inactive)	> 100 µM (inactive)	> 100 µM (inactive)	> 100 µM (inactive)
CCOC(=O)c1ccc(N2C(=S)N(C(=O)c3ccccc3)C(=N/c3ccccc3)/C2=N\c2ccccc2)cc1	27.6 µM (inactive)	92.9 µM (inactive)	> 100 µM (inactive)	19.7 µM (inactive)	58.3 µM (inactive)	> 100 µM (inactive)	> 100 µM (inactive)	51.5 µM (inactive)	> 10 µM (inactive)	56.1 µM (inactive)	> 100 µM (inactive)	51.2 µM (inactive)	> 100 µM (inactive)	> 100 µM (inactive)	> 100 µM (inactive)	50 µM (inactive)	22.7 µM (inactive)	29.6 µM (inactive)	22.9 µM (inactive)	–
COc1cc2cc(C(=O)N3CC(CCl)c4ccc([N+](=O)[O-])cc43)[nH]c2c(OC)c1OC (stereo unspecified)	> 100 µM (inactive)	> 100 µM (inactive)	> 100 µM (inactive)	> 100 µM (inactive)	74.5 µM (inactive)	> 100 µM (inactive)	> 100 µM (inactive)	> 100 µM (inactive)	> 100 µM (inactive)	> 100 µM (inactive)	–	> 100 µM (inactive)	> 100 µM (inactive)	> 100 µM (inactive)	> 100 µM (inactive)	> 100 µM (inactive)	> 100 µM (inactive)	> 100 µM (inactive)	–	> 100 µM (inactive)
COC(=O)C12Oc3ccc(-c4ccc5c(c4O)C(O)=C4C(=O)CC(C)C(O)C4(C(=O)OC)O5)c(O)c3C(O)=C1C(=O)CC(C)C2O (stereo unspecified)	0.346 µM (active)	0.547 µM (active)	–	0.0644 µM (active)	0.135 µM (active)	0.0753 µM (active)	0.0555 µM (active)	0.0634 µM (active)	0.0641 µM (active)	0.0615 µM (active)	0.0421 µM (active)	0.0304 µM (active)	0.0494 µM (active)	0.0843 µM (active)	0.0397 µM (active)	0.0394 µM (active)	0.241 µM (active)	0.0708 µM (active)	0.416 µM (active)	0.102 µM (active)
O=C(O)c1cncc(C(=O)O)c1	> 100 µM (inactive)	> 100 µM (inactive)	–	> 100 µM (inactive)	> 100 µM (inactive)	> 100 µM (inactive)	> 100 µM (inactive)	> 100 µM (inactive)	> 100 µM (inactive)	> 100 µM (inactive)	> 100 µM (inactive)	> 100 µM (inactive)	> 100 µM (inactive)	> 100 µM (inactive)	> 100 µM (inactive)	> 100 µM (inactive)	> 100 µM (inactive)	> 100 µM (inactive)	> 100 µM (inactive)	> 100 µM (inactive)

Reference: ChEMBL document CHEMBL1201862, “PubChem BioAssay data set” (2004)
